pIC50: −log10 of the molar value. Values belong to the compound of their own block, whether it stands above or below them.
Experiments:
[1] = test system: Human mammary carcinoma (MX-1) tumor cells; assay: In vitro cytotoxicity, SRB assay; details: read-out: IC50 MX-1; SRB assay, 72-hr incubation
CCRF-CEM/Taxol = assay: In vitro cytotoxicity, XTT assay, taxol-resistant subline; details: for fold of cross-resistant, CCRF-CEM/Taxol vs IC50 of parent cell line: number in brackets; for pIC50: read-out: IC50 CCRF-CEM/Taxol, XTT assay, 72-hr incubation
[2] = test system: human glioma U87 GM s.c. xenograft; assay: Therapeutic effect in nude mice bearing U87 glioma xenograft; format: in vivo
Procedure: (§1) Athymic nude mice bearing the nu/nu gene were used for human breast tumor MX-1 xenograft (FIGS. 3 and 4) and human brain glioma U87 GM xenograft (FIG. 5). Nude mice were obtained from National Cancer Institute, Frederick, Md. Male mice 6 weeks old or older weighing 22 g or more were used for experiments with subcutaneous tumor inoculation as described previously.^62 Drug was administrated via the tail vein by iv injection. Tumor volumes were assessed by measuring length×width×height (or width) by using caliper. Vehicle used was 20 μL DMSO in 180 μL saline. All animal studies were conducted in accordance with the guidelines of the U.S. National Institutes of Health Guide for the Care and Use of Animals and the protocol approved by the Institutional Animal Care and Use Committee.
The therapeutic effects of N-mustard compounds, BO-1049, 1051 and 1055, against human glioma U87 GM s.c. xenograft in nude mice were given in FIG. 5, A and B. U87 glioma is known to be refractory tumor that can not be effectively treated with cell-cycle specific anti-tumor drugs such as taxol, epothilones, or arabinosylcytosine. However, cell-cycle non-specific drugs such as alkylating agent, cyclophosphamide or BCNU, yields better therapeutic results. […] However, upon 6 days of recession of treatment with BO-1049 or BO-1055, the tumor began to regrow.
(§2) Animals. Athymic nude mice bearing the nu/nu gene were obtained from NCI, Frederick, Md. and used for all human tumor xenografts. Male nude mice 6 weeks or older weighing 20-24 g or more were used. Compounds were administered via the tail vein for i.v. injection or infusion as described previously.^59 A typical formulation for chemotherapeutic studies for each drug was dissolved in DSMO to make a 25 mg/ml fresh solution, 0.4 ml of this solution was mixed with 0.3 ml of Tween 80, plus 1.3 ml to make 2 ml of 5 mg/ml solution. Bolus injection volume was 0.1-0.2 ml per mouse. Tumor volume was assessed by measuring length×width×height (or width) by using a caliper. For tumor-bearing nude mice during the course of the experiment, the body weight refers to total weight minus the weight of the tumor. All animal studies were conducted in accordance with the guidelines for the National Institute of Health Guide for the Care and Use of Animals and the protocol approved by the Institutional Animal Care and Use Committee.

[3] = test system: Human colon carcinoma HCT-116 cells; assay: In vitro cytotoxicity, SRB assay; details: read-out: IC50 HCT-116; SRB assay, 72-hr incubation
[4] = test system: CCRF-CEM human lymphoblastic leukemia cells; assay: In vitro cytotoxicity, XTT assay; details: read-out: IC50 CCRF-CEM; XTT assay, 72-hr incubation
[5] = test system: human mammary carcinoma MX-1 xenograft; assay: Antitumor therapeutic effect in nude mice bearing MX-1 xenograft; format: in vivo; details: for log cell kill: estimated by Eq. 4 from remission time; for Duration complete remission maintained without relapse: one cycle 5-dose-treatment, 3 out of 3 mice
Procedure: as §1, §2
The therapeutic effects of a drug against human tumor xenografts in nude mice, under the optimal therapeutic conditions but without any lethality due to drug toxicity, the following degrees of therapeutic effects are defined and calculated by the following formula:
[formula] • where T0 is the initial tumor size (in mm^3) at beginning of drug treatment; • Tc is tumor size of untreated control group on a given date; and • Tx is tumor size of the drug treated group on a given date.
[formula] • Where T0 and Tx are as specified as above. • Tumor disappearance (complete remission or CR) is defined by the effect where [Tx=0] for a period of time (in days) for a proportion of animals (NCR/N), where N is the total number of animals in the group, and NCR is the number of mice in the group that achieved CR. • Tumor relapse is quantitatively calculated by [The Day tumor relapsed(Drelp)−The Day CR achieved(DCR)] (Eq. 3) • for a proportion of animals (Nrelp/N) where N is the total number of animals in the group, and Nrelp is the number of the mice in the group that relapsed. • The log cell kill (LCK) of the tumor tissue after a given chemotherapy that reached CR is estimated by: LCK=log [2^(Tumor remission in days/Tumor doubling time in days)] (Eq. 4)

[6] = unpublished results of the applicant
[7] = test system: various human leukemia and solid tumor; details: in vitro and in vivo; cited from earlier work
[8] = 150 mg/kg, Q2D×5, i.v.-injection

melting point: 224 to 225 °C
Compound: COc1ccc2nc(C)cc(NNC(=O)Nc3ccc(N(CCCl)CCCl)cc3)c2c1

melting point: 235 to 236 °C
Compound: Cc1cc(NNC(=O)Nc2ccc(N(CCCl)CCCl)cc2)c2ccccc2n1

melting point: 217 to 218 °C
Compound: Cc1cc(Oc2ccc(NC(=O)Nc3ccc(N(CCCl)CCCl)cc3)cc2)c2cc3c(cc2n1)OCO3

melting point: 183 to 184 °C
Compound: Cc1cc(Oc2ccc(NC(=O)Oc3ccc(N(CCCl)CCCl)cc3)cc2)c2cc3c(cc2n1)OCO3

Compound: 1-{4-[Bis-(2-chloroethyl)amino]phenyl-3-[6-methoxy-2-(4-methoxyphenyl)quinolin-4-yl]urea [BO-1049]
pIC50 [1]: 5.73
fold of cross-resistant, CCRF-CEM/Taxol vs IC50 of parent cell line (CCRF-CEM/Taxol): 1.6 x
pIC50 (CCRF-CEM/Taxol): 6.23
time after end of treatment at which tumor began to regrow [2, 8]: 6 days
tumor-growth suppression [2, 8]: complete tumor-growth suppression
therapeutic effect compared with cyclophosphamide ([2]; BO-1049 150, BO-1051 100, BO-1055 30 mg/kg vs cyclophosphamide 80 mg/kg, all Q2D×5, parallel study): superior therapeutic effects than cyclophosphamide
pIC50 [3]: 5.43
pIC50 [4]: 6.44
Tumor remission achieved ([5]; doses and schedules as in Table 2 (30-150 mg/kg, i.v.)): complete tumor remission
log cell kill [5]: > 4.1
Duration complete remission maintained without relapse [5]: over 70 days

Compound: OCc1cc(Nc2c3ccccc3nc3ccccc23)cc(OCCN(CCCl)CCCl)c1 [BO-0742]
half-life in mice [6]: about 25 min
cytotoxicity relative to AHMA (times more cytotoxic) [7]: > 100 time

Compound: COc1cc(N)cc(Nc2c3ccccc3nc3c(OCCN(CCCl)CCCl)cccc23)c1.Cl [BO-0940, N1-(4-{2-[bis(2-chloroethyl)-amino]-ethoxy}acridin-9-yl)-5-methoxybenzene-1,3-diamine hydrochloride]
cytotoxicity relative to AHMA (times more cytotoxic) [7]: > 100 time

Compound: CN(C)CCNC(=O)c1cccc(NC(=O)Nc2ccc(N(CCCl)CCCl)cc2)c1.Cl [BO-1055, 3-(3-{4-[Bis(2-chloroethyl)amino]phenyl}ureido)-N-(2-dimethylaminoethyl)benzamide hydrochloride]
pIC50 [1]: 6.26
fold of cross-resistant, CCRF-CEM/Taxol vs IC50 of parent cell line (CCRF-CEM/Taxol): 15.4 x
pIC50 (CCRF-CEM/Taxol): 5.92
time after end of treatment at which tumor began to regrow ([2]; 30 mg/kg, Q2D×5, i.v.-injection): 6 days
pIC50 [3]: 6.18
pIC50 [4]: 6.90
Maximal body-weight loss (%) ([5]; 30 mg/kg, Q2D × 5, i.v.): 15%
log cell kill [5]: > 4.1
Duration complete remission maintained without relapse [5]: over 70 days

Source: patent US8222297B2, “Aniline or phenol mustards linked to DNA-affinic molecules or water-soluble aromatic rings and their use as cancer therapeutic agents” (Academia Sinica, priority 2007, dated 2012)
